Values after ≈ are worked out from the molar mass of the structure shown.
Legend:
[1] = test system: Salmonella enterica subsp. enterica; assay: Antibacterial activity against Salmonella typhi by twofold dilution method; format: functional, Salmonella enterica subsp. enterica serovar Typhi; details: Salmonella enterica; read-out: MIC
Aspergillus flavus = assay: Antifungal activity against Aspergillus flavus by twofold dilution method; format: functional; details: Aspergillus flavus; read-out: MIC
Cryptococcus neoformans = assay: Antifungal activity against Cryptococcus neoformans by twofold dilution method; format: functional; details: Cryptococcus neoformans; read-out: MIC
Rhizopus = assay: Antifungal activity against Rhizopus sp. by twofold dilution method; format: functional; details: Rhizopus; read-out: MIC
Escherichia coli = assay: Antibacterial activity against Escherichia coli by twofold dilution method; format: functional; details: Escherichia coli; read-out: MIC
Staphylococcus aureus [2] = assay: Antibacterial activity against Staphylococcus aureus by twofold dilution method; format: functional; details: Staphylococcus aureus; read-out: MIC
Candida = assay: Antifungal activity against Candida 51 by twofold dilution method; format: functional; details: Candida, 51; read-out: MIC
Candida albicans = assay: Antifungal activity against Candida albicans by twofold dilution method; format: functional; details: Candida albicans; read-out: MIC
Aspergillus niger = assay: Antifungal activity against Aspergillus niger by twofold dilution method; format: functional; details: Aspergillus niger; read-out: MIC
Pseudomonas aeruginosa = assay: Antibacterial activity against Pseudomonas aeruginosa by twofold dilution method; format: functional; details: Pseudomonas aeruginosa; read-out: MIC
Staphylococcus aureus [3] = assay: Ratio of MIC for drug to MIC for Ciprofloxacin against Staphylococcus aureus; format: functional
[4] = test system: Salmonella enterica subsp. enterica; assay: Ratio of MIC for drug to MIC for Ciprofloxacin against Salmonella typhi; format: functional, Salmonella enterica subsp. enterica serovar Typhi

SMILES	MIC [1] [µg/mL]	MIC (Aspergillus flavus) [µg/mL]	MIC (Cryptococcus neoformans) [µg/mL]	MIC (Rhizopus) [µg/mL]	MIC (Escherichia coli) [µg/mL]	MIC (Staphylococcus aureus [2]) [µg/mL]	MIC (Candida) [µg/mL]	MIC (Candida albicans) [µg/mL]	MIC (Aspergillus niger) [µg/mL]	MIC (Pseudomonas aeruginosa) [µg/mL]	Ratio (Staphylococcus aureus [3])	Ratio [4]
CC1/C(=N/OCc2ccccc2)CC(c2ccc(Cl)cc2)NC1c1ccc(Cl)cc1 (configuration not stated)	50 (≈ 114 µM)	50 (≈ 114 µM)	50 (≈ 114 µM)	100 (≈ 228 µM)	50 (≈ 114 µM)	50 (≈ 114 µM)	50 (≈ 114 µM)	25 (≈ 56.9 µM)	50 (≈ 114 µM)	25 (≈ 56.9 µM)	–	–
COc1ccc(C2C/C(=N\OCc3ccccc3)C(C)C(c3ccc(OC)cc3)N2)cc1 (configuration not stated)	25 (≈ 58.1 µM)	50 (≈ 116 µM)	25 (≈ 58.1 µM)	25 (≈ 58.1 µM)	50 (≈ 116 µM)	25 (≈ 58.1 µM)	12.5 (≈ 29 µM)	25 (≈ 58.1 µM)	50 (≈ 116 µM)	50 (≈ 116 µM)	–	–
CCC1/C(=N/OCc2ccccc2)CC(c2ccccc2)NC1c1ccccc1 (configuration not stated)	50 (≈ 130 µM)	> 200	200 (≈ 520 µM)	50 (≈ 130 µM)	100 (≈ 260 µM)	25 (≈ 65 µM)	100 (≈ 260 µM)	100 (≈ 260 µM)	50 (≈ 130 µM)	100 (≈ 260 µM)	–	–
c1ccc(CON=C2CC(c3ccccc3)NC(c3ccccc3)C2)cc1 (configuration not stated)	100 (≈ 281 µM)	200 (≈ 561 µM)	> 200	> 200	> 200	> 200	200 (≈ 561 µM)	200 (≈ 561 µM)	> 200	200 (≈ 561 µM)	–	–
Cc1ccc([C@@H]2C/C(=N/OCc3ccccc3)C[C@H](c3ccc(C)cc3)S2)cc1	25 (≈ 62.3 µM)	100 (≈ 249 µM)	200 (≈ 498 µM)	50 (≈ 125 µM)	50 (≈ 125 µM)	12.5 (≈ 31.1 µM)	100 (≈ 249 µM)	100 (≈ 249 µM)	50 (≈ 125 µM)	25 (≈ 62.3 µM)	2	2
CC1/C(=N/OCc2ccccc2)CC(c2ccccc2)NC1c1ccccc1 (configuration not stated)	100 (≈ 270 µM)	100 (≈ 270 µM)	> 200	200 (≈ 540 µM)	200 (≈ 540 µM)	200 (≈ 540 µM)	200 (≈ 540 µM)	100 (≈ 270 µM)	200 (≈ 540 µM)	200 (≈ 540 µM)	–	–
Clc1ccc(C2CC(=NOCc3ccccc3)CC(c3ccc(Cl)cc3)N2)cc1 (configuration not stated)	100 (≈ 235 µM)	200 (≈ 470 µM)	100 (≈ 235 µM)	> 200	50 (≈ 118 µM)	50 (≈ 118 µM)	200 (≈ 470 µM)	50 (≈ 118 µM)	50 (≈ 118 µM)	50 (≈ 118 µM)	–	–
COc1ccc(C2NC(c3ccc(OC)cc3)C(C)C(=NOCc3ccccc3)C2C)cc1 (configuration not stated)	25 (≈ 56.2 µM)	100 (≈ 225 µM)	12.5 (≈ 28.1 µM)	25 (≈ 56.2 µM)	25 (≈ 56.2 µM)	25 (≈ 56.2 µM)	6.25 (≈ 14.1 µM)	12.5 (≈ 28.1 µM)	25 (≈ 56.2 µM)	50 (≈ 112 µM)	–	–
CCC1/C(=N\OCc2ccccc2)CC(c2ccccc2)OC1c1ccccc1 (configuration not stated)	100 (≈ 259 µM)	100 (≈ 259 µM)	50 (≈ 130 µM)	100 (≈ 259 µM)	50 (≈ 130 µM)	200 (≈ 519 µM)	100 (≈ 259 µM)	100 (≈ 259 µM)	200 (≈ 519 µM)	100 (≈ 259 µM)	–	–
Cc1ccc(C2C/C(=N\OCc3ccccc3)C(C)C(c3ccc(C)cc3)N2)cc1 (configuration not stated)	100 (≈ 251 µM)	100 (≈ 251 µM)	100 (≈ 251 µM)	25 (≈ 62.7 µM)	100 (≈ 251 µM)	50 (≈ 125 µM)	50 (≈ 125 µM)	50 (≈ 125 µM)	100 (≈ 251 µM)	50 (≈ 125 µM)	–	–
COc1ccc(C2OC(c3ccc(OC)cc3)C(C)C(=NOCc3ccccc3)C2C)cc1 (configuration not stated)	50 (≈ 112 µM)	100 (≈ 224 µM)	6.25 (≈ 14 µM)	25 (≈ 56.1 µM)	25 (≈ 56.1 µM)	50 (≈ 112 µM)	12.5 (≈ 28.1 µM)	50 (≈ 112 µM)	50 (≈ 112 µM)	25 (≈ 56.1 µM)	–	–
CCOC(=O)C1/C(=N/OCc2ccccc2)CC(c2ccccc2)NC1c1ccccc1 (configuration not stated)	200 (≈ 467 µM)	100 (≈ 233 µM)	100 (≈ 233 µM)	200 (≈ 467 µM)	100 (≈ 233 µM)	200 (≈ 467 µM)	100 (≈ 233 µM)	50 (≈ 117 µM)	200 (≈ 467 µM)	50 (≈ 117 µM)	–	–
CC(C)C1/C(=N/OCc2ccccc2)CC(c2ccccc2)NC1c1ccccc1 (configuration not stated)	100 (≈ 251 µM)	200 (≈ 502 µM)	100 (≈ 251 µM)	50 (≈ 125 µM)	100 (≈ 251 µM)	> 200	200 (≈ 502 µM)	50 (≈ 125 µM)	200 (≈ 502 µM)	200 (≈ 502 µM)	–	–
COc1ccc([C@@H]2CC(=NOCc3ccccc3)C[C@@H](c3ccc(OC)cc3)S2)cc1	50 (≈ 115 µM)	25 (≈ 57.7 µM)	12.5 (≈ 28.8 µM)	50 (≈ 115 µM)	50 (≈ 115 µM)	50 (≈ 115 µM)	25 (≈ 57.7 µM)	25 (≈ 57.7 µM)	25 (≈ 57.7 µM)	25 (≈ 57.7 µM)	–	–

From ChEMBL document CHEMBL1158420, “Synthesis, spectral, crystal and antimicrobial studies of biologically potent oxime ethers of nitrogen, oxygen and sulfur heterocycles” (2009)
